# Test results taken from US20210346329A1, “TCA CYCLE INTERMEDIATES AND METHODS OF USE THEREOF” (IMBRIA PHARMACEUTICALS, INC., priority 2018, published 2021).
# Values joined by “and” are separate entries in the source; they are usually repeats but may differ in a detail not shown here. Equal entries are not always repeated. Where two headings read alike, the source gives them in different places.
# Key:
# [1] = Plasma concentrations of radioactive material; format: in vivo, CD® rats; conditions: IV 10 mg/kg
# Experimental: The plasma-time course, routes and rates of excretion, and tissue distribution of radioactivity following a single oral dose of ^14C-labeled citrate or single oral dose of ^14C-labeled succinate were analyzed in rats.
# Formulations were prepared on the day prior to dosing.
# CD® rats were obtained from Charles River Laboratories. Animals were 9-11 weeks in age at beginning of study.
# Animals given intravenous ^14C-succinate were not kept in a fasting state. ^14C-succinate was administered by tail vein injection.
# Blood and plasma were collected by cardiac puncture for terminal collection at 0.5, 1, 2, 4, 8, and 24 hours post-dose. Blood was stored on an ice block or wet ice until centrifugation to obtain plasma. Triplicate aliquots were weighed, mixed with scintillation cocktail, and counted by LSC.
# Samples were analyzed for radioactivity by liquid scintillation counting (LSC) for at least 5 minutes or 100,000 cumulative counts. Samples were analyzed in triplicate.
# [2] = Text: Concentrations versus time data are plotted in FIG. 1 through FIG. 6.
# [3] = SC 10 mg/kg, individual rat (777)
# [4] = SC 10 mg/kg, individual rats 776, 777, 778, 10 mg/kg
# [5] = SC 50 mg/kg, individual rats 779, 780, 781, 50 mg/kg
# [6] = SC 100 mg/kg, individual rats 782, 783, 784, 100 mg/kg
# [7] = SC 100 mg/kg, individual rats 782, 783, 100 mg/kg
structure (smiles),measurement,setting,value
O=C(O)CCC(=O)O [^14C-succinate],Plasma concentration of radioactive material,"[1]; 30 min, Subject 1001",2809 ng-equivalents/g
same,Plasma concentration of radioactive material,"[1]; 1 hr, Subject 1002",2996 ng-equivalents/g
same,Plasma concentration of radioactive material,"[1]; 2 hr, Subject 1003",1466 ng-equivalents/g
same,Plasma concentration of radioactive material,"[1]; 4 hr, Subject 1004",1158 ng-equivalents/g
same,Plasma concentration of radioactive material,"[1]; 8 hr, Subject 1005",813 ng-equivalents/g
same,Plasma concentration of radioactive material,"[1]; 24 hr, Subject 1006",511 ng-equivalents/g
O=[13C](O)[13CH2][13CH2][13C](=O)O [^13C4-succinate],Time post dosing at which maximum plasma concentrations were observed,[2]; SC 10 mg/kg,15 min
same,Plasma concentration,"[2]; SC 10 mg/kg, 0.50 hr, individual rats 776, 777, 778, 10 mg/kg",1280 ng/mL (2×) and 854 ng/mL
same,Plasma concentration,"[2]; SC 10 mg/kg, 0.50 hr, mean",1138 ng/mL
same,Plasma concentration,"[2]; SC 10 mg/kg, 1.0 hr, individual rats 776, 777, 778, 10 mg/kg",430 ng/mL and 220 ng/mL and 415 ng/mL
same,Plasma concentration,"[2]; SC 10 mg/kg, 1.0 hr, mean",355 ng/mL
same,Plasma concentration,"[2]; SC 10 mg/kg, 2.0 hr, individual rats 776, 777, 778, 10 mg/kg",28.5 ng/mL and 10.6 ng/mL and 23.2 ng/mL
same,Plasma concentration,"[2]; SC 10 mg/kg, 2.0 hr, mean",20.8 ng/mL
same,Plasma concentration,"[2]; SC 10 mg/kg, 4.0 hr, mean",7.59 ng/mL
same,AUC∞,[2]; [3],1030 ng·h/mL
same,Dose-normalized AUC∞,[2]; [3],103 kg·ng·h/mL/mg
same,t1/2,[2]; [3],27.2 min
same,tmax,"[2]; SC 10 mg/kg, individual rats 776, 777, 778",15 min
same,Bioavailability,"[2]; SC 10 mg/kg, individual rats 776, 777, 778, vs average IV dose-normalized AUClast, 10 mg/kg",98.9% and 47.7% and 76.7%
same,AUClast,[2]; [4],2131 ng·h/mL and 1027 ng·h/mL and 1653 ng·h/mL
same,Cmax,[2]; [4],5090 ng/mL and 2090 ng/mL and 3260 ng/mL
same,MRTlast,[2]; [4],30.2 min and 29.3 min and 31.6 min
same,AUClast,"[2]; SC 10 mg/kg, mean",1604 ng·h/mL
same,Cmax,"[2]; SC 10 mg/kg, mean",3480 ± 1512 ng/mL
same,MRTlast,"[2]; SC 10 mg/kg, mean",30.4 min
same,tmax,"[2]; SC 10 mg/kg, mean",15 min
same,Bioavailability,"[2]; SC 10 mg/kg, mean, vs average IV dose-normalized AUClast",74.4±25.7%
same,Dose-normalized AUClast,"[2]; SC 10 mg/kg, mean, 10 mg/kg",160 ± 55.4 kg·ng·h/mL/mg
same,Dose-normalized AUClast,"[2]; SC 10 mg/kg, mean, listed as 13C4-Succinate, 10 mg/kg",160 kg·ng·h/mL/mg
same,Time post dosing at which maximum plasma concentrations were observed,[2]; SC 50 mg/kg,15 min
same,Plasma concentration,"[2]; SC 50 mg/kg, 0.50 hr, individual rats 779, 780, 781, 50 mg/kg",9750 ng/mL and 15500 ng/mL and 11100 ng/mL
same,Plasma concentration,"[2]; SC 50 mg/kg, 0.50 hr, mean",12117 ng/mL
same,Plasma concentration,"[2]; SC 50 mg/kg, 1.0 hr, individual rats 779, 780, 781, 50 mg/kg",1020 ng/mL and 2420 ng/mL and 2020 ng/mL
same,Plasma concentration,"[2]; SC 50 mg/kg, 1.0 hr, mean",1820 ng/mL
same,Plasma concentration,"[2]; SC 50 mg/kg, 2.0 hr, individual rats 779, 780, 781, 50 mg/kg",102 ng/mL and 163 ng/mL and 122 ng/mL
same,Plasma concentration,"[2]; SC 50 mg/kg, 2.0 hr, mean",129 ng/mL
same,Plasma concentration,"[2]; SC 50 mg/kg, 4.0 hr, individual rats 779, 780, 781, 50 mg/kg",15.1 ng/mL and 10.3 ng/mL and 12.3 ng/mL
same,Plasma concentration,"[2]; SC 50 mg/kg, 4.0 hr, mean",12.6 ng/mL
same,Plasma concentration,"[2]; SC 50 mg/kg, 8.0 hr, mean",18.8 ng/mL
same,tmax,"[2]; SC 50 mg/kg, individual rats 779, 780, 781",15 min
same,Bioavailability,"[2]; SC 50 mg/kg, individual rats 779, 780, 781, vs average IV dose-normalized AUClast, 50 mg/kg",78.0% and 116% and 98.7%
same,AUClast,[2]; [5],8405 ng·h/mL and 12496 ng·h/mL and 10632 ng·h/mL
same,Cmax,[2]; [5],14800 ng/mL and 18300 ng/mL and 18900 ng/mL
same,Dose-normalized AUClast,[2]; [5],168 kg·ng·h/mL/mg and 250 kg·ng·h/mL/mg and 213 kg·ng·h/mL/mg
same,MRTlast,[2]; [5],33.5 min and 31.8 min and 30.3 min
same,AUClast,"[2]; SC 50 mg/kg, mean",10511 ng·h/mL
same,Cmax,"[2]; SC 50 mg/kg, mean",17333 ± 2214 ng/mL
same,MRTlast,"[2]; SC 50 mg/kg, mean",31.9 min
same,tmax,"[2]; SC 50 mg/kg, mean",15 min
same,Bioavailability,"[2]; SC 50 mg/kg, mean, vs average IV dose-normalized AUClast",97.6±19.0%
same,Dose-normalized AUClast,"[2]; SC 50 mg/kg, mean, 50 mg/kg",210 ± 41.0 kg·ng·h/mL/mg
same,Dose-normalized AUClast,"[2]; SC 50 mg/kg, mean, listed as 13C4-Succinate, 50 mg/kg",210 kg·ng·h/mL/mg
same,Time post dosing at which maximum plasma concentrations were observed,[2]; SC 100 mg/kg,15 min
same,Plasma concentration,"[2]; SC 100 mg/kg, 0.50 hr, individual rats 782, 783, 784, 100 mg/kg",24500 ng/mL and 13900 ng/mL and 25200 ng/mL
same,Plasma concentration,"[2]; SC 100 mg/kg, 0.50 hr, mean",21200 ng/mL
same,Plasma concentration,"[2]; SC 100 mg/kg, 1.0 hr, individual rats 782, 783, 784, 100 mg/kg",6840 ng/mL and 4980 ng/mL and 7750 ng/mL
same,Plasma concentration,"[2]; SC 100 mg/kg, 1.0 hr, mean",6523 ng/mL
same,Plasma concentration,"[2]; SC 100 mg/kg, 2.0 hr, individual rats 782, 783, 784, 100 mg/kg",364 ng/mL and 435 ng/mL and 779 ng/mL
same,Plasma concentration,"[2]; SC 100 mg/kg, 2.0 hr, mean",526 ng/mL
same,Plasma concentration,"[2]; SC 100 mg/kg, 4.0 hr, individual rats 782, 783, 784, 100 mg/kg",103 ng/mL and 40.8 ng/mL and 52.9 ng/mL
same,Plasma concentration,"[2]; SC 100 mg/kg, 4.0 hr, mean",65.6 ng/mL
same,Plasma concentration,"[2]; SC 100 mg/kg, 8.0 hr, mean",25.9 ng/mL
same,tmax,"[2]; SC 100 mg/kg, individual rats 782, 783, 784",15 min
same,Bioavailability,"[2]; SC 100 mg/kg, individual rats 782, 783, 784, vs average IV dose-normalized AUClast, 100 mg/kg",115% (2×) and 72.0%
same,AUClast,[2]; [6],24683 ng·h/mL and 15518 ng·h/mL and 24689 ng·h/mL
same,Cmax,[2]; [6],37900 ng/mL and 23100 ng/mL and 32000 ng/mL
same,Dose-normalized AUClast,[2]; [6],247 hr · kg · ng/mL/mg (2×) and 155 hr · kg · ng/mL/mg
same,MRTlast,[2]; [6],35.8 min and 37.7 min and 39.6 min
same,AUC∞,[2]; [7],24719 ng·h/mL and 15530 ng·h/mL
same,Dose-normalized AUC∞,[2]; [7],247 kg·ng·h/mL/mg and 155 kg·ng·h/mL/mg
same,t1/2,[2]; [7],84 min and 44.8 min
same,AUClast,"[2]; SC 100 mg/kg, mean",21630 ng·h/mL
same,AUC∞,"[2]; SC 100 mg/kg, mean",20124 ng·h/mL
same,Cmax,"[2]; SC 100 mg/kg, mean",31000 ± 7451 ng/mL
same,Dose-normalized AUC∞,"[2]; SC 100 mg/kg, mean",201 kg·ng·h/mL/mg
same,MRTlast,"[2]; SC 100 mg/kg, mean",37.7 min
same,t1/2,"[2]; SC 100 mg/kg, mean",64.2 min
same,tmax,"[2]; SC 100 mg/kg, mean",15 min
same,Bioavailability,"[2]; SC 100 mg/kg, mean, vs average IV dose-normalized AUClast",100±24.6%
same,Dose-normalized AUClast,"[2]; SC 100 mg/kg, mean, 100 mg/kg",216 ± 52.9 kg·ng·h/mL/mg
same,Dose-normalized AUClast,"[2]; SC 100 mg/kg, mean, listed as 13C4-Succinate, 100 mg/kg",216 kg·ng·h/mL/mg
same,Change of exposure with increasing dose,"[2]; SC 10, 50 and 100 mg/kg",nonlinear increase in exposure with increasing dose
same,Adverse reactions,"[2]; subcutaneous dosing, 10, 50 and 100 mg/kg",No adverse reactions were observed
